Experimental data from patent publication US8426394B2, “Progesterone antagonists such as CDB-4124 in the treatment of endometriosis, uterine fibroids, dysmenorrhea, breast cancer, etc” (Repros Therapeutics Inc., priority 2008, dated 2013).

What was measured:
[1] = system: progesterone-induced endometrial proliferation in the rabbit uterus; test: anti-McGinty and anti-Clauberg assays (biological activity in the rabbit uterus); format: in vivo; conditions: in comparison to RU 486 and CDB-2914
Text: Also given in Table 1 are the relative biological activities of the same compounds in the rabbit uterus by the anti-McGinty and anti-Clauberg assays. Compound CDB-2914 (listed at the end of the Table) was used as the control or reference compound (rabbit Biological Activity=1.00) for these experiments because results of experiments using CDB-2914 have been published before (Hild-Petito et al., 1996; Passaro et al., 1997; Reel et al., 1998; Lamer et al., 2000). For the anti-McGinty test, immature female rabbits received a subcutaneous injection of 5 μg estradiol in 10% ethanol/sesame oil daily for 6 consecutive days. On day 7, animals underwent sterile abdominal surgery to ligate a 3-4 cm segment of both uterine horns. The test compound in appropriate solvent was injected intraluminally into the ligated segment of one uterine horn and vehicle alone into the other. […] Five micron sections stained with hematoxylin and cosin were evaluated microscopically for the degree of endometrial glandular proliferation. The percent inhibition of endometrial proliferation for each rabbit was calculated and the mean of the group of five animals recorded. […] Five micron sections stained with hematoxylin and eosin were evaluated microscopically for the degree of endometrial glandular proliferation. […]

[2] = molecular target: T1, glucocorticoid receptor (rbGR) (Oryctolagus cuniculus, UniProt P59667); test: Glucocorticoid receptor binding / anti-glucocorticoid receptor activity; parameters: species or system rabbit
T1 construct: cytosol containing PR or GR were prepared in TEGMD buffer; from tissue; host or cells: thymus of estradiol-primed immature rabbits (cytosol)
T1 sequence (P59667 1-772): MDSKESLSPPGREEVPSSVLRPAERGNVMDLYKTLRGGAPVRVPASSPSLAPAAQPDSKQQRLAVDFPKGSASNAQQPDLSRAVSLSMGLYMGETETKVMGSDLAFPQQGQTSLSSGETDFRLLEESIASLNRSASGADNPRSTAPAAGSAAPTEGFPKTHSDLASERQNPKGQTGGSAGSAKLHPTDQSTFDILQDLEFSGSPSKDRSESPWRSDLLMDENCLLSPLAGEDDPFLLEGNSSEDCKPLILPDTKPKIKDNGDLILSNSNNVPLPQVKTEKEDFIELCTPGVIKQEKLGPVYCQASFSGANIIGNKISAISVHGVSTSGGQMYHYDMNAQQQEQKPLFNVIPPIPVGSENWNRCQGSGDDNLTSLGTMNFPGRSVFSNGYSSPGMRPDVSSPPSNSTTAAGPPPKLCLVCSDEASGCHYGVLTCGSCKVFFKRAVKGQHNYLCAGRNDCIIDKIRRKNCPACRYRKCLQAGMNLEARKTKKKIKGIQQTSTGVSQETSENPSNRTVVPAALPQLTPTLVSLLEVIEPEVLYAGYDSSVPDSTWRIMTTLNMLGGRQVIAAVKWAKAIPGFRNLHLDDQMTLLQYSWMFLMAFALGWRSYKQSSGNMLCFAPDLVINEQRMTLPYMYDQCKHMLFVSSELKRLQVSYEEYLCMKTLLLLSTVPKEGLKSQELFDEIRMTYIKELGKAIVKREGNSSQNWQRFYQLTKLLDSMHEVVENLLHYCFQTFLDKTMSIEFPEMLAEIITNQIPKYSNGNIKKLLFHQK
Protocol: Certain antiprogestins were tested in receptor-binding assays for their ability to bind rabbit progesterone receptor (rbPR) and glucocorticoid receptor (rbGR). […] For PR binding, the cytosol was incubated with 6 nM 1,2-[^3H]progesterone (50.0 Ci/mmole) and competitors were added at concentrations from 2 to 100 nM. For binding to GR, the cytosol was incubated with 6 nM 6,7-[^3H]-dexamethasone (40 Ci/mmol) and test compounds were added at concentrations from 20 to 100 nM. After overnight incubation at 4 C, bound and unbound [^3H] steroids were separated by addition of dextran-coated charcoal and centrifugation at 2100×g for 15 min at 4 C. Supernatants containing the [3H]-steroid receptor complexes were decanted into vials containing 4 ml Optifluor (Packard Instrument Co.), vortexed, equilibrated in a liquid scintillation counter for 30 minutes and then counted for 2 minutes. […] The standards for the PR and GR assays were unlabeled progesterone and dexamethasone, respectively.

glucocorticoid receptor = molecular target: T2, glucocorticoid receptor (Homo sapiens, UniProt P04150); conditions: Attardi et al., 2002; cited from earlier work
T2 sequence (P04150 1-777): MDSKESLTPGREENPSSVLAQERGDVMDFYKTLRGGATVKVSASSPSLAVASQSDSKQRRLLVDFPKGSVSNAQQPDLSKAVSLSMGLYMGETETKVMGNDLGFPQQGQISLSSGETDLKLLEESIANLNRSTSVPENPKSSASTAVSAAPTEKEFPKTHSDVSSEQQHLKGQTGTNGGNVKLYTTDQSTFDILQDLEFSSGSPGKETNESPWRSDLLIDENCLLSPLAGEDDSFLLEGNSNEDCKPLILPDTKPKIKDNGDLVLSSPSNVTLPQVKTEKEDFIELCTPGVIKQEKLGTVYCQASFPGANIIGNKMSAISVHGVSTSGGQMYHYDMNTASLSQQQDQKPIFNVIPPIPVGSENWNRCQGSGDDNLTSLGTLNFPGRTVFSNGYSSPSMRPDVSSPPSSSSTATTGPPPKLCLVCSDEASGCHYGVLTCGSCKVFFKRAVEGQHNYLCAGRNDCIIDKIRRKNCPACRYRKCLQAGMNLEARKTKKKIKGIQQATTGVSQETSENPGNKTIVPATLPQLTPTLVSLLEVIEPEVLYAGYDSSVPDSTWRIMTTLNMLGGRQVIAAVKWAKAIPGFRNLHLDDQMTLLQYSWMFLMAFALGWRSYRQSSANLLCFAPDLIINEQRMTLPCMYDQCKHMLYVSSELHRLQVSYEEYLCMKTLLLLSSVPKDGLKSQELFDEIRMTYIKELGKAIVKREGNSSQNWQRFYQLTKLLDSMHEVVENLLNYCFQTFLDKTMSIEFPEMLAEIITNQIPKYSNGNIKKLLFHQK

[3] = system: pre-menopausal adult women diagnosed with endometriosis; test: Six month study of Proellex (CDB-4124) in the treatment of endometriosis; format: in vivo, human; conditions: Lucrin
Protocol: Pain reduction also occurred more rapidly than with the active control, Lucrin®. The response of pain to treatment in this study was analyzed in two ways. Patients in the study maintained daily pain diaries to record the severity and frequency of pain. In addition, at each office visit, patients filled out endometriosis symptom surveys that included a questionnaire that evaluated intensity of pain on a bad day on a scale of 0-10 with 10 being the greatest intensity. […] There appeared to be a dose dependent effect on pain reduction. […] This decrease in duration of pain was statistically better (p=0.0012) than the 117.8 (74%; standard deviation 51.4 days) pain free days achieved with Lucrin®. […] Patients on CDB-4124 12.5 mg and 25 mg doses had 115.9 (66%; standard deviation 69.2 days) and 133.6 (75%; standard deviation 27.4 days) pain free days, respectively. […] The 25 mg and 12.5 mg doses of CDB-4124 were not statistically different from Lucrin®. […] The intensity of pain was assessed by the question: “On a […], with 0 being no pain and 10 being extreme pain, how intense was your pain on a bad day?” The mean scores for intensity of pain at baseline were 6.3 for the CDB-4124 groups and 6.1 for the Lucrin® group. […] At month three all four active treatment groups had statistically significant reduction in pain compared with baseline, with the following scores: 3.7 (p=0.03) for 12.5 mg CDB-4124, 3.2 (p=0.03) for 25 mg CDB-4124, 1.6 (p=0.015) for 50 mg CDB-4124 and 1.5 (p=0.016) for Lucrin®. These dose related reductions continued until month six when the values for pain intensity were 2.0 (p=0.008), 2.8 (p=0.023), 0.6 (p=0.004) and 0.7 (p=0.016), respectively. Two months after stopping treatment pain returned and was of similar intensity in all four treatment groups.

[4] = Serum corticosterone in rats; conditions: progesterone, CDB-4124 and RU-486 groups compared

CC(=O)OCC(=O)[C@@]1(OC(C)=O)CCC2C3CCC4=CC(=O)CCC4=C3C(c3ccc(N(C)C)cc3)C[C@@]21C (stereo partly drawn) [CDB-4059, 21-acetoxy-17α-acetoxy-11β-(4 N,N-dimethylaminophenyl)-19-norpregna-4,9-diene-3,20-dione]
antiprogestin activity in the rabbit uterus [1]: strong
anti-glucocorticoid receptor activity / glucocorticoid receptor binding [2]: minimal

CNc1ccc([C@H]2C[C@@]3(C)[C@@H](CC[C@]3(OC(C)=O)C(=O)COC)[C@@H]3CCC4=CC(=O)CCC4=C32)cc1 [CDB-4453, 21-methoxy-17α-acetoxy-11β-(4-N-methylaminophenyl)-19-norpregna-4,9-diene-3,20-dione]
anti-glucocorticoid activity relative to parent CDB-4124 (glucocorticoid receptor): even lower

CCNC(=O)[C@@H]1CCCN1C(=O)[C@H](CCCNC(=N)N)NC(=O)[C@H](CC(C)C)NC(=O)[C@@H](CC(C)C)NC(=O)[C@H](Cc1ccc(O)cc1)NC(=O)[C@H](CO)NC(=O)[C@H](Cc1c[nH]c2ccccc12)NC(=O)[C@H](Cc1c[nH]cn1)NC(=O)[C@@H]1CCC(=O)N1 [Lupron®, leuprolide acetate, reference compound]
intensity of pain on a bad day (score) ([3]; month six, scale 0-10, p=0.016): 0.7
intensity of pain on a bad day (score) ([3]; month three, scale 0-10, baseline 6.1, p=0.016): 1.5

CC#C[C@]1(O)CC[C@H]2[C@@H]3CCC4=CC(=O)CCC4=C3[C@@H](c3ccc(N(C)C)cc3)C[C@@]21C [RU 486, 11β-[p-(Dimethylamino)phenyl]-17β-hydroxy-17-(1-propynyl)estra-4,9-dien-3-one, reference compound]
differences in serum corticosterone between treatment groups [4]: No differences
